The supplement of paper PMC12463676, “Small-molecule dissolution of stress granules by redox modulation benefits ALS models” (Nature Chemical Biology, 2025)

What follows are targets tested with NC(=O)CCCCC1CCSS1 [lipoamide] (assay: thermal stability z-score vs DMSO; higher = more thermally stabilized by treatment). Settings: HeLa; lipoamide concentration 100 µM; arsenate co-treatment: none.
Procedure: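 Cellular thermal proteome profiling in HeLa cells. Cells were treated with 100 µM lipoamide for 1 h, with or without 1 mM arsenate for a further 1 h, then heated to ten temperatures (37-66.3 °C), and soluble protein was quantified by TMT mass spectrometry relative to 0.1% DMSO controls. The thermal stability score (sum of log2 fold changes minus the abundance score) was transformed to a z-score; mean of n = 3 experiments.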
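Further: each temperature applied for 3 min, abundance score taken as mean log2 fold change at the two lowest temperatures, z-score obtained by mean subtraction and division by SD.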

UniProt O43684, sequence (O43684 whole entry): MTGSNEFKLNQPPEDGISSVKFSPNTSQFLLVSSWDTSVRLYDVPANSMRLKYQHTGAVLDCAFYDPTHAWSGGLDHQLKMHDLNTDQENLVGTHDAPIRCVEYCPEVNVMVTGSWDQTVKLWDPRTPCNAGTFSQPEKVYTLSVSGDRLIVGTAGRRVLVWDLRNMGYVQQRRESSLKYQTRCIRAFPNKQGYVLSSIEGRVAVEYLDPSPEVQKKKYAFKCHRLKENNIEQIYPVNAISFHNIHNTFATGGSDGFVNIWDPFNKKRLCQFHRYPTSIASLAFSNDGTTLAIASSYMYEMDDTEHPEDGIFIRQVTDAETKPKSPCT
UniProt Q6ZUT9, sequence (Q6ZUT9 whole entry): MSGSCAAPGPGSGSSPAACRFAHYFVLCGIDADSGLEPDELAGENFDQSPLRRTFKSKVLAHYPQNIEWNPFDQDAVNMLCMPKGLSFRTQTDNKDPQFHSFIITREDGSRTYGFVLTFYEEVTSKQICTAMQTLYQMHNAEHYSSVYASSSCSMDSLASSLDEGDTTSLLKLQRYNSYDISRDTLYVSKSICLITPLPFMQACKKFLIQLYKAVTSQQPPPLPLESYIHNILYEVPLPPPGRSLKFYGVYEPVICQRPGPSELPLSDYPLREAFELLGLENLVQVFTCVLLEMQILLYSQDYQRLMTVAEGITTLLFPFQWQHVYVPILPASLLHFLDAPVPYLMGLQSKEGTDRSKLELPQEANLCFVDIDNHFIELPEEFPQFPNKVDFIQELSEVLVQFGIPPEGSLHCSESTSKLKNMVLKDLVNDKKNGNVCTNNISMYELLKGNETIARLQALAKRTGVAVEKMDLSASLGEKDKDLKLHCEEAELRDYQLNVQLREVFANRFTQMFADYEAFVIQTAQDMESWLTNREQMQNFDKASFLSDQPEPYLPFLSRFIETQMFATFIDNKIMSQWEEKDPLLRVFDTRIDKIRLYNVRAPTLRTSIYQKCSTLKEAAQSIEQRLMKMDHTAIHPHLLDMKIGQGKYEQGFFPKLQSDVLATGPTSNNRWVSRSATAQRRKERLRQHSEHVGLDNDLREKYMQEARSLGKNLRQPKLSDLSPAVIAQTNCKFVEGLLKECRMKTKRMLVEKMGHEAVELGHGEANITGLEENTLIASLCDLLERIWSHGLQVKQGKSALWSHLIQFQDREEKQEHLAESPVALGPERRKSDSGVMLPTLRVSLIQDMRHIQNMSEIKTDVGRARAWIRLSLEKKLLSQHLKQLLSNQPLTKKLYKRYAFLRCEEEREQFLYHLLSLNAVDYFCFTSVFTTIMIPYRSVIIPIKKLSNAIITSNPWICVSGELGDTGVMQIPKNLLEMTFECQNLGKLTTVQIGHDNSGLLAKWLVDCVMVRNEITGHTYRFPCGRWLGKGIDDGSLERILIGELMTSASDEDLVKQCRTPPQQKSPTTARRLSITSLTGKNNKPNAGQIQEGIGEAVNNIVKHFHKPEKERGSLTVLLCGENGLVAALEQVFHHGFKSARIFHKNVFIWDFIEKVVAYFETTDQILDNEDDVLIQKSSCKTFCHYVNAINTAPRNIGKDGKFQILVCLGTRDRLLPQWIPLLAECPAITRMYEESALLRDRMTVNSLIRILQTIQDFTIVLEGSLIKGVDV
UniProt Q9H8M7, sequence (Q9H8M7 whole entry): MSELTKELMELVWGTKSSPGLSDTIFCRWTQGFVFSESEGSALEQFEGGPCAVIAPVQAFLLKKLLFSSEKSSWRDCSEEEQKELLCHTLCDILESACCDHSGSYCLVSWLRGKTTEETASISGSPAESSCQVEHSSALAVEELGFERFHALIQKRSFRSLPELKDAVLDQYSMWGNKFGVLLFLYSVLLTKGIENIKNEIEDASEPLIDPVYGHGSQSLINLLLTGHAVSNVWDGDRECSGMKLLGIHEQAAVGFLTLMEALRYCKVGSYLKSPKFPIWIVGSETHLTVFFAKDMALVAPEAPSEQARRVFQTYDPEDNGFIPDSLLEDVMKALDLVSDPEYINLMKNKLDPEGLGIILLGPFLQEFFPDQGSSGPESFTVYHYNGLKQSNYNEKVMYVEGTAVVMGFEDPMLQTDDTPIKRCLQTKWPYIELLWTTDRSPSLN
UniProt Q9Y4K0, sequence (Q9Y4K0 whole entry): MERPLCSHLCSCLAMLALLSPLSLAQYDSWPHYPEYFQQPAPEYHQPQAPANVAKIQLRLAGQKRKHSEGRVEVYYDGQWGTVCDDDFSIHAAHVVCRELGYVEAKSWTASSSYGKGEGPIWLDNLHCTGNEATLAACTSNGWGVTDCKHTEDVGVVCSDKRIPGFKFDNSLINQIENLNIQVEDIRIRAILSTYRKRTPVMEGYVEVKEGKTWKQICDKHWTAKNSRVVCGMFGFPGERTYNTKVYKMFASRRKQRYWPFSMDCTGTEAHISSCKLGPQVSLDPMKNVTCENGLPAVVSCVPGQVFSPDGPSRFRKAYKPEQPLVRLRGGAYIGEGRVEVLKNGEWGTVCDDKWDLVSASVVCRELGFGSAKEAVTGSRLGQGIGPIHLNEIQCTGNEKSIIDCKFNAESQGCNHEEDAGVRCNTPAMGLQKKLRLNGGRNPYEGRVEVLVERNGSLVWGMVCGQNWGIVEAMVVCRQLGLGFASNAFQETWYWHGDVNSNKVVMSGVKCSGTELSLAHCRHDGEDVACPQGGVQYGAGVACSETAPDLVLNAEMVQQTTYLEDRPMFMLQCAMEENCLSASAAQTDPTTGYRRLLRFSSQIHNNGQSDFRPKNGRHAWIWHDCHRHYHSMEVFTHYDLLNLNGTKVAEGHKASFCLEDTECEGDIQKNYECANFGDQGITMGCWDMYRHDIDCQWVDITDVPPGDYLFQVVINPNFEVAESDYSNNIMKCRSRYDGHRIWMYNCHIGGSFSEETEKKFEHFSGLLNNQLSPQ
UniProt P14625, sequence (P14625 whole entry): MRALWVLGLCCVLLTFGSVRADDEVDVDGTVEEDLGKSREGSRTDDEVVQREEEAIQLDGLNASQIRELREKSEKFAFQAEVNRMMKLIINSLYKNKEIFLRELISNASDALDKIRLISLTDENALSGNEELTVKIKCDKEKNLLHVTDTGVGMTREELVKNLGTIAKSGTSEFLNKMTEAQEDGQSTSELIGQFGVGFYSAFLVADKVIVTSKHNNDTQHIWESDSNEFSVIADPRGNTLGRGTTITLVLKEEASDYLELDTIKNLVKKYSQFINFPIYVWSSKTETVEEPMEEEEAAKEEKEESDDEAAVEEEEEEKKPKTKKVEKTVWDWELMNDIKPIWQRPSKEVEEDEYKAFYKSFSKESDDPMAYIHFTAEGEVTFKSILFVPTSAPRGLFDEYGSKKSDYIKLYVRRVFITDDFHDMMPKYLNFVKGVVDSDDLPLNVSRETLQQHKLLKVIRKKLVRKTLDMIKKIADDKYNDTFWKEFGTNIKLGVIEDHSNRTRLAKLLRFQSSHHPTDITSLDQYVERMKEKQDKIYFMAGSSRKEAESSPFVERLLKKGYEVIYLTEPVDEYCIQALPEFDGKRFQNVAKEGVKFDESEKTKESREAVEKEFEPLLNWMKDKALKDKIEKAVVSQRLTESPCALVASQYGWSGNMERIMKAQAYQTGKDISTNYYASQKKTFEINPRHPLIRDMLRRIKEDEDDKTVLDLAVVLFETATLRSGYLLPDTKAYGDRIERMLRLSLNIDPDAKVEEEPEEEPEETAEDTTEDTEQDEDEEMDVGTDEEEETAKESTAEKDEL
UniProt Q13867, sequence (Q13867 whole entry): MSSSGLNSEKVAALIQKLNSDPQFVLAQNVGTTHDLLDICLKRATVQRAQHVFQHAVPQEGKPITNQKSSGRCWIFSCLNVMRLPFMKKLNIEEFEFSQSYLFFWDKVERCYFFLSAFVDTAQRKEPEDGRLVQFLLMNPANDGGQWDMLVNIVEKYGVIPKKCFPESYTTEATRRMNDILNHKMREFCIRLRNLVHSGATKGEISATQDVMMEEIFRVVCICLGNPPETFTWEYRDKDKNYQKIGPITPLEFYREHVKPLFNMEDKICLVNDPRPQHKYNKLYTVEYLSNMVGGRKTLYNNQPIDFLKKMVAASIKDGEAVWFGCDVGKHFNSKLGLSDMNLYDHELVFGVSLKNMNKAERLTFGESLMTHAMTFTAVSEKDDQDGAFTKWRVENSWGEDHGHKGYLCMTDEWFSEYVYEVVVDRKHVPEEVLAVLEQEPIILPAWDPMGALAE
UniProt Q8NHH9, sequence (Q8NHH9 whole entry): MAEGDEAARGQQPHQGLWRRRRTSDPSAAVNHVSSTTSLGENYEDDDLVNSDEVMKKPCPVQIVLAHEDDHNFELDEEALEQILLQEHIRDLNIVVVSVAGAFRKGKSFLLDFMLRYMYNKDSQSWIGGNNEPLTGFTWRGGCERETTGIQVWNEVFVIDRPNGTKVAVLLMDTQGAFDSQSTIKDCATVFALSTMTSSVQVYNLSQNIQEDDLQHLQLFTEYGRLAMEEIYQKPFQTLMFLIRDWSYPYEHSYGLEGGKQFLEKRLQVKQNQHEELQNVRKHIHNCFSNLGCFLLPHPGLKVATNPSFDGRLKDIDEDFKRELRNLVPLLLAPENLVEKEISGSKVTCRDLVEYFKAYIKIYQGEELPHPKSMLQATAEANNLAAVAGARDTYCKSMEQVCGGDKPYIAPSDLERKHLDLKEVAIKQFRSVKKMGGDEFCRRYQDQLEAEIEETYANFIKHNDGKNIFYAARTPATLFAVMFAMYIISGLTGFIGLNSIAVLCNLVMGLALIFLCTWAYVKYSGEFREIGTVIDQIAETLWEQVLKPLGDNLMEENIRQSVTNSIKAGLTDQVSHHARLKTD
UniProt Q9BV68, sequence (Q9BV68 whole entry): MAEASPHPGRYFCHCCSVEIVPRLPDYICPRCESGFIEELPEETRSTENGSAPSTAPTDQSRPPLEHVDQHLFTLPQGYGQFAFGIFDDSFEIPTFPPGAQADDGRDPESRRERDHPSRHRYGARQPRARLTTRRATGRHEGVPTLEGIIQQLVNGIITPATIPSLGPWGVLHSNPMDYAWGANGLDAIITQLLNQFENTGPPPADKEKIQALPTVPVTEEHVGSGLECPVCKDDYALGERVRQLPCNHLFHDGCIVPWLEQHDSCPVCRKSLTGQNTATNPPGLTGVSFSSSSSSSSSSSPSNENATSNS

Target	thermal stability z-score
SMG8 (UniProt Q8ND04)	-0.705
RAD54L2 (UniProt Q9Y4B4)	0.0462
LIAS (UniProt O43766)	3.09
MSTO1 (UniProt Q9BUK6)	-0.0527
VPS36 (UniProt Q86VN1)	-0.0675
PDE1A (UniProt P54750)	1.23
ITPR3 (UniProt Q14573)	-0.526
HSP90B1 (UniProt P14625)	-2.61
RBM12 (UniProt Q9NTZ6)	-0.19
TXNL1 (UniProt O43396)	-0.576
EXOC8 (UniProt Q8IYI6)	0.0172
TCAF1 (UniProt Q9Y4C2)	0.355
HEXA (UniProt P06865)	-0.412
BLMH (UniProt Q13867)	0.365
FAM117B (UniProt Q6P1L5)	0.461
GLTP (UniProt Q9NZD2)	0.581
MIEF1	-0.035
UBQLN1 (UniProt Q9UMX0)	2.04

Target	thermal stability z-score
BUB3 (UniProt O43684)	-0.134
POLR2B (UniProt P30876)	0.769
ATL2 (UniProt Q8NHH9)	-0.0585
ABCG2 (UniProt Q9UNQ0)	-0.208
DENND5B (UniProt Q6ZUT9)	0.0385
SGF29 (UniProt Q96ES7)	0.347
SLIRP (UniProt Q9GZT3)	-0.197
CCT3 (UniProt P49368)	-0.106
FAM188A (UniProt Q9H8M7)	0.885
SNW1 (UniProt Q13573)	-0.726
CC2D1A (UniProt Q6P1N0)	0.0816
RNF126 (UniProt Q9BV68)	-1.02
CTBP2 (UniProt P56545)	-0.0596
NRDC (UniProt O43847)	-0.0343
XYLB (UniProt O75191)	-0.17
LOXL2 (UniProt Q9Y4K0)	-1.35
TUSC1 (UniProt Q2TAM9)	0.368
MRPS2 (UniProt Q9Y399)	0.188

Each target was assayed with O=[As]([O-])(O)O.[K+] [potassium arsenate] in the same assay as above. Settings: HeLa; arsenate concentration 1 mM.
Procedure: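 Cellular thermal proteome profiling in HeLa cells treated with 1 mM arsenate for 1 h (DMSO pretreatment), heated to ten temperatures (37-66.3 °C). Soluble protein was quantified by TMT mass spectrometry relative to DMSO controls; the thermal stability score was transformed to a z-score; mean of n = 3 experiments.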

Target	thermal stability z-score
AJUBA (UniProt Q96IF1)	-0.562
SH3BGRL (UniProt O75368)	0.235
YIF1B (UniProt Q5BJH7)	0.898
CTNNA1 (UniProt P35221)	-0.4
ANXA11 (UniProt P50995)	1.77
PYROXD1 (UniProt Q8WU10)	-1.15
RPRD1B (UniProt Q9NQG5)	0.808
ATP1B1 (UniProt P05026)	-0.201
BNIP1 (UniProt Q12981)	0.0814
RSRC2 (UniProt Q7L4I2)	1.03
RAVER1 (UniProt Q8IY67)	-0.162
OPHN1 (UniProt O60890)	0.0261
DDRGK1 (UniProt Q96HY6)	0.397
ERCC3 (UniProt P19447)	0.156
TXNDC9 (UniProt O14530)	0.0909
PPWD1 (UniProt Q96BP3)	-0.656
TPM4 (UniProt P67936)	-0.0802
ALDOA (UniProt P04075)	-0.488
EIF3F (UniProt O00303)	-0.156
FOCAD (UniProt Q5VW36)	-0.279
AP3D1 (UniProt O14617)	0.577
CD99 (UniProt P14209)	0.168
CSTF1 (UniProt Q05048)	-1.45
RPS8 (UniProt P62241)	-0.848

Target	thermal stability z-score
MIPEP (UniProt Q99797)	-0.271
TCEB3 (UniProt Q14241)	0.0043
RANBP6 (UniProt O60518)	-0.131
LRR1 (UniProt Q96L50)	-0.256
LEMD3 (UniProt Q9Y2U8)	-0.685
POLE (UniProt Q07864)	-0.553
REEP3 (UniProt Q6NUK4)	-0.0274
GOT2 (UniProt P00505)	-0.0952
EIF2S1 (UniProt P05198)	0.0905
FDXR (UniProt P22570)	0.404
ARIH1 (UniProt Q9Y4X5)	-0.568
SNRPGP15|SNRPG	0.296
SMG8 (UniProt Q8ND04)	0.575
RAD54L2 (UniProt Q9Y4B4)	-0.235
LIAS (UniProt O43766)	-2.31
MSTO1 (UniProt Q9BUK6)	-0.742
VPS36 (UniProt Q86VN1)	0.0802
PDE1A (UniProt P54750)	1.05
ITPR3 (UniProt Q14573)	-0.418
HSP90B1 (UniProt P14625)	0.54
RBM12 (UniProt Q9NTZ6)	-0.506
TXNL1 (UniProt O43396)	7
EXOC8 (UniProt Q8IYI6)	-0.106
TCAF1 (UniProt Q9Y4C2)	0.396

Target	thermal stability z-score
HEXA (UniProt P06865)	-0.0764
BLMH (UniProt Q13867)	0.0746
FAM117B (UniProt Q6P1L5)	0.314
GLTP (UniProt Q9NZD2)	0.72
MIEF1	-0.198
UBQLN1 (UniProt Q9UMX0)	0.778
BUB3 (UniProt O43684)	-0.833
POLR2B (UniProt P30876)	0.205
ATL2 (UniProt Q8NHH9)	0.103
ABCG2 (UniProt Q9UNQ0)	1.12
DENND5B (UniProt Q6ZUT9)	0.148
SGF29 (UniProt Q96ES7)	-1.03
SLIRP (UniProt Q9GZT3)	0.123
CCT3 (UniProt P49368)	0.00358
FAM188A (UniProt Q9H8M7)	1.07
SNW1 (UniProt Q13573)	-0.395
CC2D1A (UniProt Q6P1N0)	-0.0172
RNF126 (UniProt Q9BV68)	-2.65
CTBP2 (UniProt P56545)	0.448
NRDC (UniProt O43847)	0.364
XYLB (UniProt O75191)	0.149
LOXL2 (UniProt Q9Y4K0)	-0.197
TUSC1 (UniProt Q2TAM9)	0.0895
MRPS2 (UniProt Q9Y399)	0.591
